We go through five compounds from patent publication US8222417B2, “Compound having 11β-HSD1 inhibitory activity” (Taisho Pharmaceutical Co., Ltd, priority 2007, dated 2012).

Structures are written as SMILES.

In this experiment the target is T1, 11β-HSD1 (Homo sapiens, UniProt P28845).
T1 construct: human liver microsome (enzyme source, Tissue Transformation Technologies); tissue Tissue Transformation Technologies; host or cells: human liver microsomes
T1 sequence (P28845 whole entry): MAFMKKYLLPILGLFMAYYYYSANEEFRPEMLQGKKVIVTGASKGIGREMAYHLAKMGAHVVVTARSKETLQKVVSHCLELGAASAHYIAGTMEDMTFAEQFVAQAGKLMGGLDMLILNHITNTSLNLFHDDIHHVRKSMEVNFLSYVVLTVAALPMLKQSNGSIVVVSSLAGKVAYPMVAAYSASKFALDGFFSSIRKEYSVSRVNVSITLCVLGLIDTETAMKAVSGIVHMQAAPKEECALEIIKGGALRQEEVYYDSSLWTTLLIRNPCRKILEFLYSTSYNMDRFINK
The experiment can be described thus: 11β-HSD1 inhibition test (human liver microsome, HTRF cortisol detection). The class given is biochemical. Conditions: human liver microsome as enzyme source; cortisone 100 nM; 20° C., 80 minutes; generated cortisol quantified by HTRF. How it is done:
Test Example [11β-HSD1 Inhibition Test]
Test Compounds were Evaluated as Follows.
11β-HSD1 enzyme reaction was performed in a reaction solution of 100 μl total volume using 96-well polypropylene microplates. The reaction solution was prepared in 30 mM Tris-HCl (pH 7.4)/1 mM EDTA buffer to contain NADPH at a final concentration of 100 μM, G6P at a final concentration of 1 mM, human liver microsome (enzyme source, Tissue Transformation Technologies) at a final concentration of 0.8 μg/ml and 10 μl of a test compound dissolved in DMSO. The enzyme reaction was initiated by addition of cortisone at a final concentration of 100 nM. After incubation at 20° C. for 80 minutes, 10 μl of 1 mM 18β glycyrrhetinic acid, which is a non-specific inhibitor, was added to stop the reaction. Next, the amount of generated cortisol was quantified with a detection kit (Sceti Medical Labo K.K., Japan) according to the HTRF (Homogeneous Time-Resolved Fluorescence) method. This system detects fluorescence resonance energy transfer between europium-labeled anti-cortisol antibody and XL665-labeled cortisol. Upon addition of unlabeled cortisol, binding signals will be attenuated due to competitive reaction. Based on this principle, the amount of cortisol generated by the enzyme reaction was evaluated using a standard curve obtained from samples with known concentrations of cortisol included in the kit. The HTRF reaction was performed in 96-well half area microplates as follows: to 30 μl enzyme reaction solution, an anti-cortisol antibody solution (15 μl) and an XL665-labeled cortisol solution (15 μl) included in the kit were added, and the plates were vortexed at room temperature for 1 hour and further allowed to stand at 20° C. for 1 hour. 40 μl of this reaction solution was transferred to 384-well microplates and measured for its fluorescence. 18β Glycyrrhetinic acid was added to wells before initiation of the enzyme reaction and the amount of cortisol generated in these wells was used as a background level. Test compounds were evaluated using serial dilutions at a common ratio of 3 to calculate their IC50 values, assuming that the amount of cortisol generated in wells containing no test compound was set to 100% enzyme activity.
Background: Microsomes from liver hold many membrane-bound enzymes, among them those of drug oxidation.
As a reminder, the IC50 is the concentration at which inhibition is half-maximal. Higher therefore signals a need for much substance. In the case of `O=C(N[C@H]1C2CC3CC1C[C@](O)(C3)C2)N1CCCc2ccccc21` [Compound A-1, N-[E-1-hydroxyadamantan-4-yl]-3,4-dihydroquinoline-1(2H)-carboxamide], the IC50 turned out to be 0.7 nM.
Take `O=C(N[C@H]1C2CC3CC1C[C@](O)(C3)C2)N1CCCc2cc(Cl)ccc21` [Compound A-2, 6-chloro-N-[E-1-hydroxyadamantan-4-yl]-3,4-dihydroquinoline-1(2H)-carboxamide]: 0.9 nM corresponded to half-maximal inhibition (IC50).
`O=C(NC1C2CC3CC(C2)CC1C3)N1CCCc2ccccc21` (centres unmarked) [Compound A-5, N-adamantan-2-yl-3,4-dihydroquinoline-1(2H)-carboxamide] displayed an IC50 of 1.5 nM.
On to `O=C(N[C@H]1C2CC3CC1C[C@](O)(C3)C2)N1CCc2ccccc21` [Compound A-6, N—[E-1-hydroxyadamantan-4-yl]-2,3-dihydro-1H-indole-1-carboxamide], for which the IC50 amounted to 8.3 nM.
The result for `CN(C(=O)N1CCCc2ccccc21)[C@H]1C2CC3CC1C[C@](O)(C3)C2` [Compound A-7, N-[E-1-hydroxyadamantan-4-Y^1]-N-methyl-3,4-dihydroquinoline-1(2H)-carboxamide] reads 9.6 nM.
